# PMC9481563, “Structural insights into the pSer/pThr dependent regulation of the SHP2 tyrosine phosphatase in insulin and CD28 signaling” (Nature Communications, 2022)
# Biological target: T1, SHP2 catalytic domain (219–528), C459S, wild-type (inactive) (Homo sapiens, UniProt Q06124, C459S)
# T1 construct: SHP2 catalytic domains (219–528 with or without C459S) were sub-cloned into pBH4 vectors; His6 (N); made in house; host or cells: E. coli BL21 (DE3)
# T1 sequence (Q06124 219-528 C459S): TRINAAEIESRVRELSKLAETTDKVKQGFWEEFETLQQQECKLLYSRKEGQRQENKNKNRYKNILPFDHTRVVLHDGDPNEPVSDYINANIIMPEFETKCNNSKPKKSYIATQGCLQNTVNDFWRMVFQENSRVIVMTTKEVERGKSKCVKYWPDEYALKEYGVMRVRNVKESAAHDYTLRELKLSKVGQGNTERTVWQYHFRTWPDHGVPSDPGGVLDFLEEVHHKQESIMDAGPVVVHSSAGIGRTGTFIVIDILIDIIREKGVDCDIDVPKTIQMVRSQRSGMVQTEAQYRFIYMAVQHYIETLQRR
# Assay: Fluorescence polarization titrations, inactive SHP2 catalytic domain
# Format: binding
# Settings: competitive FP titration vs CF-ppIRS1 100 nM, protein fixed, unlabelled peptide varied; n = 3 technical replicates
# From the text: The two SH2 domains of PI3KR1 (UniProt P27986; nSH2: 321−433 cSH2: 614–724) were cloned from HEK293T cDNA pool, and subsequently ligated into a modified pET vector encoding maltose binding protein (MBP) tag on the N-terminal and a hexa-His tag on the C-terminal end of the construct. Similarly, the catalytic, tyrosine phosphatase domains of PTPRε (P23469 first domain: 107–399) and PTP1B (P18031; 1–229) were cloned from a HEK293T cDNA pool, and inserted into a pBH4 vector encoding an N-terminal His6 tag (for the final binding experiments, an MBP-tagged version of PTPRε was employed). […] Wild-type C-terminal FLAG-tagged human IRS1 was cloned between HindIII-NotI sites of pcDNA3.1(+) vector (#V79020 Invitrogen, Waltham MA USA). Ser/Ala mutant IRS1 was generated by replacing the region of S616/S636/S666/S736 positions with a cassette carrying S616A/S636A/S666A/S736A mutations. All constructs were validated by complete Sanger sequencing before protein expression and purification. The oligonucleotide sequences used are shown on Supplementary table 4.
# Fluorescence polarization was always measured in triplicates, on black Corning low volume round bottom 384-well plates (with 10 ul volumes), using a BioTek Cytatation 5 reader, with the green fluorescent protein (GFP) cube filter set (ex: 485/20, em: 528/20, gain: 50, height: 7.5). Fluorescence polarization data was evaluated on Origin 2018. The dissociation constants (Kd) were determined by using the appropriate quadratic and cubic equations inserted as a user-defined function and applying nonlinear fit until convergence. The fitting formulae are shown at Supplementary note 1. Kd ratio distributions for Fig. 6 were calculated using a Monte-Carlo approach (Supplementary note 2).
# Supplementary note 1. Curve fitting of fluorescence polarization (FP) measurements.
# To evaluate polarization values from direct and competitive titrations, we used the following fitting formulae in Origin 2018, as detailed below.
# Direct titration curves were fitted according to the following formula: […]
# Where Imin is the minimal anisotropy, Imax is the (asymptotically estimated) maximal intensity. K0 is the starting concentration of the protein, while T0 is the (fixed) concentration of the labelled peptide and Kd is the dissociation constant.
# Competitive titration curves were fitted with a different formula (In addition to those defined above, constants KdT KdB B0 T0 and D0 here refer to the Kd derived from the direct titration, the unknown Kd of the analyte, the labelled peptide concentration, the competitor peptide concentration as well as the protein concentration, respectively).
# The ± sign refers to two different scenarios, depending on the sign of discriminant (KdT > KdB or […]). For unknown analytes, the choice of sign is not arbitrary, as the fitting will not converge unless the appropriate formula is chosen: […]
# Where A, B and C correspond to the following expressions: […]
row,Structure (SMILES),Kd [µM]
1,CSCC[C@H](NC(=O)[C@H](Cc1ccc(OP(=O)(O)O)cc1)NC(=O)[C@H](CC(=O)O)NC(=O)[C@H](CO)NC(=O)[C@H](Cc1c[nH]cn1)NC(=O)[C@H](CC(C)C)NC(=O)[C@H](CC(C)C)NC(=O)[C@H](CCCNC(=N)N)NC(=O)[C@H](CO)NC(=O)[C@@H](N)CCCNC(=N)N)C(=O)N[C@@H](CC(N)=O)C(=O)N[C@@H](CCSC)C(=O)N[C@H](C(=O)N1CCC[C@H]1C(=O)N[C@@H](CCCNC(=N)N)C(=O)N[C@@H](CCCNC(=N)N)C(=O)O)[C@@H](C)O [p0CD28],39.7 ± 1.81
2,CSCC[C@H](NC(=O)[C@@H]1CCCN1C(=O)[C@H](CCSC)NC(=O)[C@H](Cc1ccc(OP(=O)(O)O)cc1)NC(=O)[C@H](CC(=O)O)NC(=O)CNC(=O)[C@H](CO)NC(=O)CNC(=O)[C@H](CCCCN)NC(=O)[C@H](CCCNC(=N)N)NC(=O)CN)C(=O)N[C@@H](CO)C(=O)N1CCC[C@H]1C(=O)N[C@@H](CCCCN)C(=O)N[C@@H](CO)C(=O)O [p0IRS1],255 ± 34.9
3,CC[C@H](C)[C@H](NC(=O)[C@H](CC(N)=O)NC(=O)[C@@H](NC(=O)[C@H](Cc1ccc(OP(=O)(O)O)cc1)NC(=O)[C@H](CCC(=O)O)NC(=O)CNC(=O)[C@@H]1CCCN1C(=O)[C@H](CO)NC(=O)[C@H](CCCCN)NC(=O)[C@@H]1CCCN1C(=O)[C@@H](N)CCC(=O)O)C(C)C)C(=O)N[C@@H](CCC(=O)O)C(=O)N[C@@H](Cc1ccccc1)C(=O)O [p0SRev-IRS1],8.4 ± 0.75
4,CSCC[C@H](NC(=O)[C@H](Cc1ccc(OP(=O)(O)O)cc1)NC(=O)[C@H](CC(=O)O)NC(=O)[C@H](CO)NC(=O)[C@H](Cc1c[nH]cn1)NC(=O)[C@H](CC(C)C)NC(=O)[C@H](CC(C)C)NC(=O)[C@H](CCCNC(=N)N)NC(=O)[C@H](CO)NC(=O)[C@@H](N)CCCNC(=N)N)C(=O)N[C@@H](CC(N)=O)C(=O)N[C@@H](CCSC)C(=O)N[C@H](C(=O)N1CCC[C@H]1C(=O)N[C@@H](CCCNC(=N)N)C(=O)N[C@@H](CCCNC(=N)N)C(=O)O)[C@@H](C)OP(=O)(O)O [ppCD28],5.66 ± 0.29
5,CSCC[C@H](NC(=O)[C@@H]1CCCN1C(=O)[C@H](CCSC)NC(=O)[C@H](Cc1ccc(OP(=O)(O)O)cc1)NC(=O)[C@H](CC(=O)O)NC(=O)CNC(=O)[C@H](CO)NC(=O)CNC(=O)[C@H](CCCCN)NC(=O)[C@H](CCCNC(=N)N)NC(=O)CN)C(=O)N[C@@H](COP(=O)(O)O)C(=O)N1CCC[C@H]1C(=O)N[C@@H](CCCCN)C(=O)N[C@@H](CO)C(=O)O [ppIRS1],5.25 ± 0.3
6,CC[C@H](C)[C@H](NC(=O)[C@H](CC(N)=O)NC(=O)[C@@H](NC(=O)[C@H](Cc1ccc(OP(=O)(O)O)cc1)NC(=O)[C@H](CCC(=O)O)NC(=O)CNC(=O)[C@@H]1CCCN1C(=O)[C@H](COP(=O)(O)O)NC(=O)[C@H](CCCCN)NC(=O)[C@@H]1CCCN1C(=O)[C@@H](N)CCC(=O)O)C(C)C)C(=O)N[C@@H](CCC(=O)O)C(=O)N[C@@H](Cc1ccccc1)C(=O)O [ppSRev-IRS1],0.72 ± 0.06
